{"source": "patent US20080113908A1", "about": "“Use of CRF receptor agonists for the treatment or Prophylaxis of diseases, for example Neurodegenerative diseases” (SmithKline Beecham plc, priority 2000, published 2008)", "system": "primary cerebellar granule neurones", "experiment": "Neuroprotection by agonists with or without cAMP inhibitor Rp-cAMP (FIG. 4)", "type": "cell-based, rat", "settings": "Rp-cAMP 100 μM; agonists 10 nM; LY 294002 75 μM", "protocol": "FIG. 4 illustrates percentage mean survival of primary cerebellar granule neurones, when in the presence of the PI 3-kinase inhibitor LY 294002 (75 μM) and also a CRF receptor agonist at 10 nM (CRF, urocortin, urotensin 1, or sauvagine), in the absence or presence of the cAMP inhibitor Rp-cAMP (100 μM). The columns from left to right represent: (1) control without LY 294002 or agonist; (2) control without agonist but with LY 294002; (columns 3, 5, 7, 9) with LY 294002 and either CRF, urocortin, urotensin 1, or sauvagine respectively; (columns 4, 6, 8, 10) as columns 3, 5, 7 and 9 respectively but additionally also with Rp-cAMP. The approx. 20% reduction in neuroprotection when in the presence of Rp-cAMP is clear."}
{"smiles": "Nc1ncnc2c1ncn2[C@@H]1O[C@@H]2CO[P@@](O)(=S)O[C@H]2[C@H]1O", "note": "[Rp-cAMPS]", "values": [{"measurement": "reduction of neuronal rescue provided by the CRF receptor agonists", "value": "about 20%"}]}
